These results are taken from a melting point compilation (Tetko et al.; mined from patent text by program, amines drawn as free bases though some values may be those of a salt).

In the case of `CCC1(CC(=O)O)CCC(c2ccccc2)c2c1n(C)c1cc(OCc3ccc4ccccc4n3)ccc21` (configuration not stated), the melting point lay in the range of 185 to 191 °C.
Then `CC(C)SC(F)(F)c1nnc(N)s1`, with 119 to 121 °C; and `CCCC1=C(C#N)C(c2ccccc2Cl)c2c(n[nH]c2-c2ccc(OC)cc2)N1` (configuration not stated), with 284 °C; and `CN(C)c1ccc(-c2ccc(C(=O)Nc3cccc(CC(=O)O)c3)o2)cc1`, with 187 to 190 °C.
Turning to `C#CCCCCn1ncc2c(N)c(C(=O)OCC=C)c(C)nc21`, the melting point lay in the range of 69 to 70 °C.
Then `Cc1ccc(-n2c(-c3cccc4ccccc34)ccc2-c2cccc3ccccc23)cc1`, with 105 to 106 °C; and `CCOC(=O)c1cccc(NC(=O)N2CCC(CNC[C@H](O)COc3cccc4[nH]c5ccccc5c34)CC2)c1`, with 160 °C.
Then `CCOC(=O)C1=C[C@@H](O)[C@H](NC(C)=O)[C@@H](NC(=O)OC(C)(C)C)C1`, with 177 to 178 °C; and `Fc1cccc2c(CCc3ccsc3)ccnc12`, with 96 to 97 °C.
Then `CC(C)(C)C(=O)Nc1ccc(Br)cn1`, with 57 to 59 °C.
Regarding `CNC(=O)c1ccc(-c2ccc3cnc(Nc4ccc(N5CCC(N6CCN(C)CC6)CC5)cc4OC)nn23)cc1`, the melting point was 112 to 114 °C.
The compound `CCc1nnc(-c2ccc(F)c(F)c2Nc2ccc(I)cc2F)o1` had a melting point of 97 to 98 °C.
Then `Nc1nc(-c2ccccc2)c(C(O)CO)c2ncnn12` (configuration not stated), with 199 to 200 °C; and `Nc1nc2ccc(S(=O)(=O)n3c(CCC(=O)O)cc4cc(Cl)ccc43)cc2s1`, with 250 to 255 °C.
Then `CN(c1ccc([N+](=O)[O-])cc1[N+](=O)[O-])S(=O)(=O)c1ccccc1`, with 152 to 153 °C; and `N#CCOc1cccc(CCNS(=O)(=O)c2ccc(Cl)cc2)c1`, with 92 °C; and `CN1CCC(OC(c2cccc(C#CCN)c2)c2nc3ccccc3[nH]2)CC1` (configuration not stated), with 101 °C.
Then `NC(=O)c1ccc(N2CCN(CCC3C=Cc4ccccc43)CC2)cc1` (configuration not stated), with 207 °C.
The compound `CN(C)CCC1=Cc2ccc(OCc3ccc(-c4ccccc4)cc3)cc2CC1` gave a melting point of 123 to 126 °C.
Then `COc1cccc(C2=CCN(C(=O)CSCc3c[nH]c4ccccc34)CC2)c1`, with 115 to 117 °C.
As for `O=C1OC(=O)c2c(Cl)ccc(Cl)c21`, the melting point was 187 to 190 °C.
Then `CCCCCCCCCCCCCCCCCC(=O)c1cc(C(=O)OCC)ccc1O`, with 74 °C.
Then `Cc1cccc(NC(=O)NC2CN(C(=O)C3CCCCC3)c3ccccc3N(CC(=O)c3ccccc3C)C2=O)c1` (configuration not stated), with 148 to 151 °C; and `Cc1noc([C@@H](Cc2ccccc2)NC(=O)[C@@H](Cc2ccc3ccccc3c2)NC(=O)c2cccc(CNC(=O)OC(C)(C)C)c2)n1`, with 176 to 178 °C; and `CCCCCCCCCCCCCCCCS(=O)(=O)Nc1ccc(OC)c(NC(=O)CC(=O)C2(C)COC(C)(C)OC2)c1`, with 68 to 70 °C.
Then `CC(C)(O)Cn1c(CO)nc2c(N)nc3cc(-c4cccc(CO)c4)cnc3c21`, with 227 to 229 °C; and `COc1cccc(Oc2ccc(NC(C)=O)cc2)c1`, with 103 to 105 °C.
`CC(C)Cc1cc(OCc2ccccc2)c2c(c1)OC(C)(C)CC2C(=O)O` (configuration not stated) showed a melting point of 152 to 153 °C.
Then `CC1CCc2ccc3ccccc3c2C1=O` (configuration not stated), with 61 to 63 °C; and `COC(=O)C1=NC2=COc3cc(C)ccc3N2C1C(=O)O` (configuration not stated), with 176 to 177 °C; and `CCS(=O)(=O)c1cc2c(cc1OC)CCn1c3c(c(-c4cccs4)c1-2)CCCCN(C(C)(C)C)C3=O`, with 223 to 224 °C.
Then `Cc1cccc2c(=O)[nH]c(CCCN3CCC[C@@H]3CO)cc12`, with 150 to 151 °C.
`NCc1ccc(-c2ccc(N(Cc3ccccc3)Cc3ccccc3)cc2)cc1`: the melting point was 122 to 125 °C.
Then `CCc1nc2cc(N3CCN(C)CC3)nc(CC)n2n1`, with 87 to 88 °C.
Then `CC(C)(C)c1ccc(C#N)cc1NC(=O)NCc1ccccc1`, with 160 to 161 °C; and `O=C(O)CCC(=O)c1ccc(NC(=O)c2ccccc2F)cc1`, with 191 to 193 °C.
Then `CN(C)c1ccc(-c2nnc(N(C)C)nc2-c2ccc(N(C)C)cc2)cc1`, with 170 to 172 °C.
In turn, `CCCC(CCC)Nc1nc(C)nc(Oc2c(Br)cc(C(C)(C)O)cc2OC)c1[N+](=O)[O-]` returned a melting point of 119 to 120 °C.
Turning to `CCCCc1ccc(-c2cnc(-c3ccc(C#N)cc3)nc2)cc1`, the melting point was 94.7 °C.
Then `Fc1nc(F)c(F)c(N2CCCNCC2)c1F`, with 58 to 61 °C; and `Cc1ccc(C(=O)NCC(O)CO)cc1-n1c(C)cc(OCc2ccccc2CNC(=O)Nc2cc(C(C)(C)C)nn2-c2ccc(Cl)c(O)c2)c(Cl)c1=O` (configuration not stated), with 169 to 171 °C.
With `CNCC(C)C1(c2ccccc2)C=CCC=C1` (configuration not stated), the melting point was over 250 °C.
As for `CCc1nc2ccccc2n(-c2ccc(Cl)cc2)c1=O`, the melting point was 163 to 165 °C.
`COc1cc(COc2nn(-c3ccccc3)cc2/C=C/C(N)=S)ccc1OCc1nc(-c2ccco2)oc1C` yielded a melting point of 129 to 131 °C.
The compound `COc1ccnc(CSc2nc3cc4c(cc3[nH]2)C(C)(C)C(=O)C4(C)C)c1C` had a melting point of 218 to 220 °C.
Then `CC1(O)CC(=O)OC(CCc2ccc(OCc3ccc(F)cc3)cc2)C1Br` (configuration not stated), with 160 to 163 °C; and `N#CCCCCNc1ccc(O)cc1`, with 88 to 90 °C.
In the case of `CC(C)S(=O)(=O)c1ccc2c(c1)nc(CC(C)(C)C)n2CCN(C)C`, the melting point was 116 °C.
Then `O=C(Nc1cc(Cl)c([N+](=O)[O-])cc1O)c1ccccc1`, with under 250 °C; and `CC(C)(C)OC(=O)NC12CC3CC(CC(O)(C3)C1)C2`, with 131 to 132 °C.
Then `O=C(Cn1c(-c2ccc(F)cc2)nc2cccnc21)OCCO`, with 166 to 168 °C; and `O=C(NCc1ccc(Cl)cc1)c1nnc2ccc(CO)cc2c1O`, with 296 to 298 °C.
Then `CCn1cc(C(=O)O)c(=O)c2cc(F)c(N3CC(C)(N)C3)c(F)c21`, with 293 to 296 °C.
For `CN1C(=O)CN(C=O)C(c2ccccc2)c2cc(Cl)ccc21` (configuration not stated), the melting point fell in the range of 167 to 169 °C.
Then `CCc1sc2c(c1S(=O)(=O)c1ccc(O)cc1)CC(Cc1ccccc1Cl)NC2` (configuration not stated), with 176 °C; and `CCCN1CCC23c4cccc(O)c4OC2C2CCC3(C1)C(CSC)C2` (configuration not stated), with 152 to 153 °C; and `CN1C(=O)c2ccc(-c3ccc(Cl)cc3)cc2C1=O`, with 131 to 132 °C.
Then `ClC1=NC(Cl)(Cl)N=C1Cl`, with 85 to 87 °C; and `CCCCc1nc2c(N)nc3cccnc3c2n1CCNC(=O)C1CCCCC1`, with 188 to 190 °C; and `CCCCc1c(C(=O)c2ccc(O)cc2)[nH]c2ccc([N+](=O)[O-])cc12`, with 181 °C.
Consider `Cn1nc(Sc2cc(C(F)(F)F)ccc2C(=O)O)n(C)c1=O`, for which the melting point was determined as 211 °C.
Then `O=C(O)c1ccccc1-c1nnc(-c2ccccc2)s1`, with 178 to 180 °C.

One may read the melting point as the temperature, or range, at which the solid turns liquid.
